Molecular target: T1, GacB (MxGacB, MXAN_2643), Hypr GGDEF enzyme (Myxococcus xanthus, UniProt Q1D911)
T1 sequence (Q1D911 1-364): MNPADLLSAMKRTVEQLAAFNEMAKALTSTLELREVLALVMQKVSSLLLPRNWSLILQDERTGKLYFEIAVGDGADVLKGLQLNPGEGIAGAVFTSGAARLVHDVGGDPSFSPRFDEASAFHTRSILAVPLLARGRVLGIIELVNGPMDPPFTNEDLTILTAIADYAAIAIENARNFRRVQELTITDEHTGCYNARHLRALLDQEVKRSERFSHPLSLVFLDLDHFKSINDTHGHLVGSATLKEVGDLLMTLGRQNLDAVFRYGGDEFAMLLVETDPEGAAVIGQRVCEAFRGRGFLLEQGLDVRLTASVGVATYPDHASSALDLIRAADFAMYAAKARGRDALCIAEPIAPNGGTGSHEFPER
Test: LC-MS inhibition assay
Format: biochemical

- IC50: 17.8 µM
SMILES: Nc1nc2c(ncn2[C@@H]2O[C@@H]3CO[P@](=O)(O)O[C@H]4[C@@H](O)[C@H](n5cnc6c(=O)[nH]c(N)nc65)O[C@@H]4CO[P@](=O)(O)O[C@H]3[C@H]2O)c(=O)[nH]1 [cdiG, cyclic di-GMP]

— article PMC7209772 (Molecular microbiology, 2019)
